# Measurements taken from US6692754B1, “Cosmetic composition” (Kyowa Hakko Kogyo Co., Ltd., priority 1999, dated 2004).
# Experiments:
# [1] = system: Fibroblast derived from human neonate; experiment: Collagen synthesis promotion activity in human fibroblast (3H-glycine incorporation, collagenase digestion); type: cell-based; conditions: for Collagen Synthetic Promotion Activity: 72 hours, relative to control (0 mM = 100); for Collagen synthetic promotion activity (in words): human fibroblast
# Procedure: Assay of synthetic collagen was conducted by the following method according to “Experimental Method of Collagen” (Written by Nagai, et al., Kodansha Scientific).
# Fibroblast derived from human neonate (Sanko Junyaku Co., Ltd.) was cultivated in DMEM medium [Virology, 8, 396 (1959)] containing 10% fetal bovine serum under conditions of 5% CO2 at 37° C. by the stationary phase. ^3H marked glycine and a test compound was added thereto, and further cultivated for 72 hours. DMEM medium was prepared by mixing Dulbecco's Modified Eagle's Medium “Nissui” (2) (manufactured by Nissui Pharmaceutical) with 4 mmol/L glutamine, an optimum dose of sodium hydrogencarbonate, 10 mmol/L HEPES, 50 U/ml penicillin G potassium, 50 μg/ml streptomycin and 10% fetal bovine serum.
# To the resultant culture broth was added 500 μmol/L phenylmethanesulfonyl fluoride (PMSF), and the cells and medium were recovered, crashed with a sonicater and the protein was extracted.
# To the extract were added 100 μmol/L bovine serum albumin (BSA) and 10% trichloroacetic acid (TCA), and the resultant mixture was centrifuged at 3000 rpm for 5 minutes to recover the precipitate.
# To the precipitate was added 0.2 mol/L sodium hydroxide at a density of 8 μl per 1 cm^2 of the bottom area of culture vessel used for said cultivation, and the resultant mixture was neutralized with an equivalent amount of 1 mol/L phosphate buffer.
# To 100 μl of the resultant protein solution were added 25 mmol/L calcium chloride (10 μmol/L), 62.5 mmol/L N-ethylmaleimide (20 μmol/L) and 20 units of collagenase (manufactured by Wako Pure Chemical Industries, Ltd.; for analyzing the collagen), and the resultant mixture was allowed to react at 37° C. for 90 minutes.
# The reaction mixture was filtered with an ultrafilter (molecular weight: 10,000), and the protein fraction of the filtrate was subjected to radiation activity (CDP) assay, which was assigned as freshly prepared collagen. The radiation activity (NCDP) of the non-filtered protein fraction was assayed, and collagen synthetic ratio was calculated according to the following formula 1.
# Relative collagen synthetic promotion activity (change in the collagen synthesis) was calculated according to the following formula 2, comparing with the relative value of the collagen synthetic ratio of the test compounds against control. [formula] [formula]
# [2] = system: epidermal keratinized cells derived from human neonate; experiment: Human epidermal cell proliferation activity (MTT method); type: cell-based; conditions: for Epidermal Cell Proliferation Activity: 4 days, 0 mM = 100
# Procedure: The human epidermal cell proliferation activity was assayed according to MTT method [Cell Culture III, 4477-4482 (1984)] by incorporating 3-(4,5-dimethylthiazol-2-yl)-2,5-diphenyltetrazolium bromide (MTT) into cells and measuring the resultant MTT formazan by colorimetry at the wave length of 570 nm (Reference, 650 nm).
# That is, epidermal keratinized cells derived from human neonate (Sanko Junyaku Co., Ltd.) was cultivated in KGM medium (Sanko Junyaku Co., Ltd.) in an atmosphere of 5% CO2 at 37° C. by the stationary phase, mixed with Hyp and N-Acetyl-Hyp and cultivated for 4 days. Then, the culture broth was mixed with 1/10 volume of 5 mg/ml MTT reagent in a phosphate buffer (pH 7.4, free of calcium and magnesium), and cultivated in an atmosphere of 5% CO2 at 37° C. for 4 hours. After removing the medium, MTT formazan in the cell was extracted with isopropanol containing 0.4 mol/L hydrochloric acid, and the absorbance at 570 nm was measured in comparison with that of 630 nm.
# mouse epidermal cells = experiment: Mouse epidermal cell proliferation activity (MTT); type: cell-based, C3H mouse; conditions: for Epidermal Cell Proliferation Activity: 6 days, 0 μM = 100
# Procedure: Epidermis was peeled from 3 days old C3H mouse according to Method of Tanigaki, et al., [The Japanese Journal of Dermatology, 1145-1152 (1989)].
# The epidermis was treated with 0.25% trypsin and centrifuged at 1500 rpm for 5 minutes to obtain the cells. The cells were inoculated onto DMEM medium containing 10% fetal bovine serum and cultivated at 37° C. for 1 day to give the mouse epidermal cells.
# The mouse epidermal cells were cultivated on MCDB 153 medium free of serum containing the test compound (Hyp or N-Acetyl-Hyp) for 6 days, mixed with 1/10 volume of 5 mg/ml MTT reagent in phosphate buffer (pH 7.4, free of calcium and magnesium), and then cultivated in an atmosphere of 5% CO2 at 37° C. for 4 hours. After removing the medium, MTT formazan in the cell was extracted with isopropanol containing 0.4 mol/L hydrochloric acid, and the absorbance at 570 nm was measured in comparison with that of 630 nm.
# [3] = system: skin of cubital fossa of healthy female panelists; experiment: Evaluation of moisture retention function (1): continuous application, skin conductivity (SKICON-200); type: in vivo, human
# Procedure: Change in the moisture retention function by continuous use was examined for the evaluation of the skin quality-improving effect of Compositions (1)-(8) prepared in Examples 1-8. The compositions are applied to the test part/cubital fossa of 4 healthy female panelists in 23-28 years old in an amount of 2 μl/cm^2 twice a day in the morning and evening for 3 weeks or 2 months. Moisture content in the test part before the application of the cosmetic composition was measured in the morning with the elapse of time. The probe was contacted vertically on the test part, and the skin conductivity (=moisture content) was assayed with SKICON-200 (manufactured by IBS) as a measuring machine. When the measured value is high, it means that the moisture content is high. Change in the skin conductivity (relative conductivity) on the test part was calculated according to the following formula 3, as a relative value to the change in the conductivity on the non-treated part. [formula]
# [4] = system: skin of cubital fossa of healthy female panelists; experiment: Evaluation of moisture retention function (2): single application, skin conductivity; type: in vivo, human
# Procedure: Concentration dependency on moisture retention effect of N-Acetyl-Hyp was evaluated by the single application. The moisture retention was assayed on the test part/cubital fossa of 12 healthy female panelists in 23-32 years old, and each of the test compositions was applied thereto in an amount of 2 μl/cm^2 and allowed to leave. Three hours later, the moisture content of the test part was measured, and the moisture retention effect was evaluated in terms of the relative conductivity when the moisture content before the application was defined as 100%.
SMILES,Collagen Synthetic Promotion Activity ([1]; 0.1 mM test compound),Collagen Synthetic Promotion Activity ([1]; 1 mM test compound),Collagen synthetic promotion activity (in words) [1],Concentration dependence of proliferation activity [2],Epidermal cells proliferation activity (in words) [2],Epidermal Cell Proliferation Activity ([2]; 10 mM),Epidermal Cell Proliferation Activity ([2]; 100 mM),Epidermal proliferation activity (in words) (mouse epidermal cells),Epidermal Cell Proliferation Activity (mouse epidermal cells; 1 μM),Epidermal Cell Proliferation Activity (mouse epidermal cells; 3 μM),Epidermal Cell Proliferation Activity (mouse epidermal cells; 10 μM),Skin moisture content / moisture retention function on continuous application (in words) [3],Moisture retention improving effect compared with collagen [3],"Relative Conductivity ([4]; 1% N-Acetyl-Hyp, single application 2 μl/cm2, three hours later, before application = 100%)","Relative Conductivity ([4]; 3% N-Acetyl-Hyp, single application, three hours later)","Relative Conductivity ([4]; 5% N-Acetyl-Hyp, single application, three hours later)","Relative Conductivity ([4]; 10% N-Acetyl-Hyp, single application, three hours later)",Moisture retention effect by single treatment (in words) ([4]; single treatment)
"O=C(O)[C@@H]1C[C@@H](O)CN1 [Hyp, trans-4-hydroxy-L-proline]",108.3,117.1,observed,Proliferation activity depending on the concentration was found,observed,111.6,135.1,found,88.6,107.5,126,an improvement in the moisture retention function was observed,,,,,,
"CC(=O)N1C[C@H](O)C[C@H]1C(=O)O [N-Acetyl-Hyp, N-acetyl-trans-4-hydroxy-L-proline]",121.1,119.7,observed,,observed,108.7,85.9,found,110.7,118.2,121.9,an improvement in the moisture retention function was observed,an improving effect exceeding that of collagen was observed,100%,129%,186%,189%,concentration dependent-moisture retention effect
